Key:
[1] = target: Prostaglandin E2 receptor EP2 subtype (Homo sapiens, UniProt P43116); assay: Binding affinity at human Prostanoid EP2 receptor.
[2] = target: Prostaglandin E2 receptor EP4 subtype (Homo sapiens, UniProt P35408); assay: Binding affinity at human Prostanoid EP4 receptor.
[3] = target: T1, Prostaglandin E2 receptor EP3 subtype (Homo sapiens, UniProt P43115); assay: Binding affinity at human Prostanoid EP3 receptor.
T1 sequence (P43115 whole entry): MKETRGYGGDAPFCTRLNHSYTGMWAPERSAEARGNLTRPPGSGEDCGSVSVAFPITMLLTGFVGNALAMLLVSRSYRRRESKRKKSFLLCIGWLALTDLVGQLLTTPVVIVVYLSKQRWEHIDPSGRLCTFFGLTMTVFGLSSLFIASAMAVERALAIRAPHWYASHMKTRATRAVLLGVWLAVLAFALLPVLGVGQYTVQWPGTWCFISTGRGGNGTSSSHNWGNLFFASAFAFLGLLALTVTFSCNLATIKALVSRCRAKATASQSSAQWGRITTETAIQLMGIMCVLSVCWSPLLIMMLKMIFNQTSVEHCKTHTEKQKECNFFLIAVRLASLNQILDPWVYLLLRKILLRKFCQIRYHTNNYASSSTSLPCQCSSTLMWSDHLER

[4] = target: T2, Prostaglandin E2 receptor EP1 subtype (Homo sapiens, UniProt P34995); assay: Binding affinity at human Prostanoid EP1 receptor.
T2 sequence (P34995 whole entry): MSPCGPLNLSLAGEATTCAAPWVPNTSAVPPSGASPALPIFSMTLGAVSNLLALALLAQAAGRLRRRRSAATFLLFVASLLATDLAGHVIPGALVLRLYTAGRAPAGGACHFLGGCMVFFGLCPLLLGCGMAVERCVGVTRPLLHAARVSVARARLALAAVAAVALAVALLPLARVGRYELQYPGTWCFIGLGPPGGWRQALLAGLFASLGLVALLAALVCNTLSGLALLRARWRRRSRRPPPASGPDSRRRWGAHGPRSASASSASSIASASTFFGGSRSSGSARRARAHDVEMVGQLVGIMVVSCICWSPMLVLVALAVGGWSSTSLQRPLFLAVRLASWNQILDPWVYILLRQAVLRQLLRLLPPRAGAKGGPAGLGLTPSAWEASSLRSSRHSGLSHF

[5] = target: Prostaglandin F2-alpha receptor (Homo sapiens, UniProt P43088); assay: Inhibitory constant against Prostanoid FP receptor
[6] = target: T3, Prostaglandin D2 receptor (Homo sapiens, UniProt Q13258); assay: Inhibitory constant against Prostanoid DP receptor
T3 sequence (Q13258 whole entry): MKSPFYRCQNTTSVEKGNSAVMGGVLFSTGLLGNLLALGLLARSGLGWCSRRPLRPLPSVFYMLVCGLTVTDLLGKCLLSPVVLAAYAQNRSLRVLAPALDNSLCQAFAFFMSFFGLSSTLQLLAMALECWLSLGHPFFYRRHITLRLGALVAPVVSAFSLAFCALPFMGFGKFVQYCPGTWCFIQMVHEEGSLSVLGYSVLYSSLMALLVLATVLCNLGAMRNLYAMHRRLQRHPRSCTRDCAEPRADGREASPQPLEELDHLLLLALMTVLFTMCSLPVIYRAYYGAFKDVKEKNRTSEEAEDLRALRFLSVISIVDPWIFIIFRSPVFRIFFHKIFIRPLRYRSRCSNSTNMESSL

Prostacyclin receptor = Prostacyclin receptor (Homo sapiens, UniProt P43119); assay: Inhibitory constant against Prostanoid IP receptor
Chain of Prostacyclin receptor (P43119 whole entry): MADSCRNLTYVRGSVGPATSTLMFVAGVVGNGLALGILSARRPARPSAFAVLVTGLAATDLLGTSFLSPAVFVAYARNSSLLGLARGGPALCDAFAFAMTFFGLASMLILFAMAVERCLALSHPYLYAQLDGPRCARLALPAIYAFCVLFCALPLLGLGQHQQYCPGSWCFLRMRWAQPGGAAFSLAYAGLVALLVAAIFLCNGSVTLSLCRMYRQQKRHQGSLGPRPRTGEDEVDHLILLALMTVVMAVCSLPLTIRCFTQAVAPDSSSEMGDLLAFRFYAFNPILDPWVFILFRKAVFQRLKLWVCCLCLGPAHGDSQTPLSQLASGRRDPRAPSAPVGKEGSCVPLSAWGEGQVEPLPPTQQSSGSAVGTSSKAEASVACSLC

Chain of Prostaglandin E2 receptor EP4 subtype (P35408 whole entry): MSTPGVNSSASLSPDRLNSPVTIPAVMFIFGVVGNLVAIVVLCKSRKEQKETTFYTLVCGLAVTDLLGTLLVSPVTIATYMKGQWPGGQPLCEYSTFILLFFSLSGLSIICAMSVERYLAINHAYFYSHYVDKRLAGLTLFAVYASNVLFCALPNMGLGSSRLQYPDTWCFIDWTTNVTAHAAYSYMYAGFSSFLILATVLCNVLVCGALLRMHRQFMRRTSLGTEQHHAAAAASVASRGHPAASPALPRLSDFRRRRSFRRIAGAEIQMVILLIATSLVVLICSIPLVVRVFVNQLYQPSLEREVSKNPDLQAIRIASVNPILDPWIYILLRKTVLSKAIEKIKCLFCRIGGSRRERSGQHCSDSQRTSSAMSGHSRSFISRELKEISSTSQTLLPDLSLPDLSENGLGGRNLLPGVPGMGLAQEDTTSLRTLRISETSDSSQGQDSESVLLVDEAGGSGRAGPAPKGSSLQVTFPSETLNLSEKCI
Chain of Prostaglandin E2 receptor EP2 subtype (P43116 whole entry): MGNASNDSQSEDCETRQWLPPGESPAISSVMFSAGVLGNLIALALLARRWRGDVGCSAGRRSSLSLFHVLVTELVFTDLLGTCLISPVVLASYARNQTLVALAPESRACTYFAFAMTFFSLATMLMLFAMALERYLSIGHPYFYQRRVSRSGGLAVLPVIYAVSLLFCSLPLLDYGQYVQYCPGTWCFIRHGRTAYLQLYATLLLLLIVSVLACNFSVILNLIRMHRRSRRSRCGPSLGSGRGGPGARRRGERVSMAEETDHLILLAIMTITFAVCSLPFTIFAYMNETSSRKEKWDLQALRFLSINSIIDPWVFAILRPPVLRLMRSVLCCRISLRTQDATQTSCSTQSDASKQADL
Chain of Prostaglandin F2-alpha receptor (P43088 whole entry): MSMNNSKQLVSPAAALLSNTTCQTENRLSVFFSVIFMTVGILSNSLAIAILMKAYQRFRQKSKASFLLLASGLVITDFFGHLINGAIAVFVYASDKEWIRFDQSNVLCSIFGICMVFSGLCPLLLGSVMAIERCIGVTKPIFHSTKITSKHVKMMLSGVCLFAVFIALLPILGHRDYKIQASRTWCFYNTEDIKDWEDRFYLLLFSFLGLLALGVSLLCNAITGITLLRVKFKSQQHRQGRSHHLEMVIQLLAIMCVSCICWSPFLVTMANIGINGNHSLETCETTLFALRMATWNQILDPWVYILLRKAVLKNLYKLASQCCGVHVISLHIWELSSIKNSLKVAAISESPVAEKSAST

Structure (SMILES)	Ki [1]	Ki [2]	Ki [3]	Ki [4]	Ki [5]	Ki [6]	Ki (Prostacyclin receptor)
O=C(CCc1ccccc1-c1cccc(/C=C/c2ccc3ccc(Cl)cc3n2)c1)NS(=O)(=O)c1cccs1	16000 nM	19000 nM	120 nM	49000 nM			
O=C(/C=C/c1ccccc1-c1cccc(/C=C/c2ccc3ccc(Cl)cc3n2)c1)NS(=O)(=O)c1cccs1	70000 nM	28000 nM	110 nM	41000 nM			
c1ccc(CCSCc2ccc(-c3ccccc3CCc3nnn[nH]3)cc2)cc1	63 nM	2600 nM	1000 nM	4900 nM			
CS(=O)(=O)c1cccc(-c2ccccc2CCC(=O)NS(=O)(=O)c2cccs2)c1	> 100000 nM	> 100000 nM	5900 nM	> 100000 nM			
CSc1cccc(-c2ccccc2CCC(=O)NS(=O)(=O)c2cccs2)c1	31000 nM	25000 nM	240 nM	27000 nM			
CCCCc1nn(-c2ccccc2C(F)(F)F)c(=O)n1Cc1ccc(-c2ccccc2S(=O)(=O)NC(=O)c2cccs2)cc1	> 10000 nM	46 nM	7000 nM	> 10000 nM			
O=C(/C=C/c1ccccc1-c1ccc(Cl)c(Cl)c1)NS(=O)(=O)c1cccs1	27000 nM	3700 nM	25 nM	8200 nM	17000 nM	830 nM	7300 nM
O=C(NS(=O)(=O)CCc1ccccc1-c1ccc(CSCCc2ccccc2)cc1)c1cccs1	2500 nM	690 nM	480 nM	2800 nM			
O=C(O)CCc1ccccc1-c1ccc(CSCCc2ccccc2)cc1	140 nM	4400 nM	740 nM	8600 nM			
O=S(=O)(CCc1ccccc1-c1ccc(CSCCc2ccccc2)cc1)NS(=O)(=O)c1cccs1	3000 nM	1100 nM	610 nM	7500 nM			

Now from value to molecule:

Ki [1]	Ki [2]	Ki [3]	Ki [4]	Ki [5]	Ki [6]	Ki (Prostacyclin receptor)	Structure (SMILES)
4900 nM	7100 nM	16 nM	13000 nM				O=C(CCc1ccccc1-c1ccc(OCCCOc2cccc(CSCCc3ccccc3)c2)cc1)NS(=O)(=O)c1cccs1
2900 nM	1000 nM	440 nM	1800 nM				Cc1cccc(OCCCOc2ccc(-c3ccccc3CC(C)(C)C(=O)NS(=O)(=O)c3cccs3)cc2)c1
2900 nM	1100 nM	340 nM	5800 nM				Cc1cccc(OCCCOc2ccc(-c3ccccc3CC(C)C(=O)NS(=O)(=O)c3cccs3)cc2)c1 (configuration not stated)
2000 nM	1000 nM	27 nM	820 nM				O=C(CCc1ccccc1-c1cccc(CSCCc2ccccc2)c1)NS(=O)(=O)c1cccs1
8600 nM	2900 nM	150 nM	15000 nM				Cc1cccc(OCCCOc2ccc(-c3ccccc3CNC(=O)NS(=O)(=O)c3cccs3)cc2)c1
2900 nM	1600 nM	53 nM	4600 nM				Cc1cccc(OCCCOc2ccc(-c3ccccc3CCC(=O)NS(=O)(=O)c3cccs3)cc2)c1
2100 nM	730 nM	120 nM	2800 nM				Cc1cccc(OCCCOc2ccc(-c3ccccc3COC(=O)NS(=O)(=O)c3cccs3)cc2)c1
590 nM	850 nM	330 nM	3700 nM				O=C(Cc1ccccc1-c1ccc(CSCCc2ccccc2)cc1)NS(=O)(=O)c1cccs1
1800 nM	700 nM	200 nM	3000 nM				O=C(CCCc1ccccc1-c1ccc(CSCCc2ccccc2)cc1)NS(=O)(=O)c1cccs1
3800 nM	1500 nM	510 nM	83 nM				O=C(CCc1ccccc1-c1ccccc1CSCCc1ccccc1)NS(=O)(=O)c1cccs1
2700 nM	1100 nM	46 nM	1700 nM				O=C(CCc1ccccc1-c1ccc(CSCCc2ccccc2)cc1)NS(=O)(=O)c1cccs1

From ChEMBL document CHEMBL1135328, “Structure-activity relationship of biaryl acylsulfonamide analogues on the human EP(3) prostanoid receptor” (Bioorg Med Chem Lett, 2002)
